As a reminder, the EC50 is the concentration giving half of the maximal effect. Usually IC50 stands for the concentration that inhibits the measured activity by half. High values mean weaker potency, low ones greater potency.

The subject of the assay is CEM cells HIV-1 protection, formazan growth assay. Description: NCI AIDS Antiviral Assay. The note with it: for IC50: measured here: growth of uninfected CEM cells. A digest of the protocol: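 Soluble formazan readout of cell growth; CEM cells ± HIV-1; 5 drug concs. ≥50% protection → retest; ≥50% again = moderately active; reproducible 100% = confirmed active.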

Active and inactive are the calls of the source.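 The calls were made as follows: active = compounds giving half or more protection of infected cells from virus-caused growth loss, again on retest; inactive = the rest.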

With `SCc1ccc(CS)s1`, the EC50 is more than 741 µM and the IC50 is more than 741 µM. Regarding `O=C(O)c1cc(Nc2nc(Cl)nc(Cl)n2)ccc1-c1c2ccc(=O)cc-2oc2cc(O)ccc12`, the EC50 is 38 µM and the IC50 was 692 µM.

`CC(=O)Oc1cccc2c1C(=O)C(Br)(Br)CCC2`: the outcome was inactive. Consider `CC1=CC(=O)C(=O)C2=C1OC1(C2)C(C)CCC2C3(C)CCC(O)C(C)(C)C3CCC21C` (stereo unspecified), for which the EC50 is more than 100 µM and the IC50 stood at 47.9 µM. Take `O=c1c2ccccc2c2c1c1c3ccccc3c(=O)c1c1c3ccccc3c(=O)c21`: the EC50 is more than 200 µM and the IC50 was more than 200 µM. For `O=C(Nc1ccc(N=Nc2ccc(O)c(C(=O)O)c2)cc1)Nc1ccc(N=Nc2ccc(O)c(C(=O)O)c2)cc1`, the EC50 is more than 200 µM and the IC50 stood at 141 µM.

Turning to `COc1ccc2cc(C(=O)c3ccccc3C(=O)O)ccc2c1`, the outcome was inactive. Turning to `C=C1CN(C(=O)c2cc3cc(OC)c(OC)c(OC)c3[nH]2)c2cc([N+](=O)[O-])ccc21`, the EC50 is 26.9 µM and the IC50 was more than 200 µM.

Take `O=C(O)CSc1n[nH]c(-c2ccco2)n1`: the EC50 was more than 224 µM and the IC50 is more than 224 µM. For `CC[C@@]1(OP(=O)(O)O)C(=O)OCc2c1cc1n(c2=O)Cc2cc3ccccc3nc2-1`, the EC50 was more than 10 µM and the IC50 turned out to be 0.0263 µM. For the compound `COc1ccccc1/C=C1\C(=O)N(C(=O)c2ccc(NC(C)=O)cc2)N=C1C`, the EC50 was more than 19.1 µM and the IC50 is more than 19.1 µM. Regarding `O=[N+]([O-])c1cc(Cl)ccc1S(=O)(=O)c1cc(Cl)cc2c1NCCC2`, the EC50 is more than 200 µM and the IC50 was 32.4 µM.

Turning to `Cn1c(=O)c2nc3n(c2n(C)c1=O)C(=O)C(C(=O)O)N=N3` (stereo unspecified), the EC50 is more than 200 µM and the 50% inhibitory concentration (IC50) is more than 200 µM. With `Clc1nc(Cl)c2sc(=[Se])sc2n1`, the EC50 is more than 200 µM and the IC50 was found to be 8.51 µM. As for `[CH3][Ge]([CH3])([CH2]CC#N)[S]c1ccccc1`, the EC50 is more than 200 µM and the IC50 was found to be 20 µM. For the compound `O=C(CCCCC(=O)OCC1COCO1)OCC1COCO1` (stereo unspecified), the EC50 is more than 200 µM and the IC50 was more than 200 µM. As for `Cc1cc(C)n(-c2nc3ccccc3c(=O)n2-c2ccccc2)n1`, the EC50 was more than 200 µM and the IC50 was more than 200 µM. In the case of `O=c1nc(-c2ccccc2)scc1-c1ccccc1`, the EC50 was more than 38 µM and the IC50 was more than 38 µM. Regarding `OCCCCCNc1ccnc2cc(Cl)ccc12`, the EC50 is more than 832 µM and the IC50 came out at 47.9 µM. As to `O=C(NCCN(CCNC(=O)c1cccc(O)c1O)CCNC(=O)c1cccc(O)c1O)c1cccc(O)c1O`, the EC50 was more than 200 µM and the IC50 was found to be 3.39 µM.

Consider `O=[N+]([O-])c1nccn1COCCO`, for which the EC50 is more than 1320 µM and the IC50 was more than 1320 µM.

For the compound `CC(=NNC(=S)Nc1ccc(C)cc1)c1cccc(C(C)=NNC(=S)Nc2ccc(C)cc2)n1`, the EC50 is more than 200 µM and the IC50 turned out to be 15.1 µM. In the case of `NC1CNC(=O)c2cscc21` (stereo unspecified), the EC50 was more than 200 µM and the IC50 was more than 200 µM. With `CCOP(=O)(OCC)C1C(=O)OC2(C)CCC1C2(C)C` (stereo unspecified), the result was inactive. In the case of `Cc1ccc(S(=O)(=O)N/N=C/c2oc(-c3ccccc3Cl)c(-c3ccccc3Cl)c2[N+](=O)[O-])cc1`, the EC50 is more than 7.08 µM and the IC50 was more than 7.08 µM. In the case of `Cc1ccc(/C=C/c2nnc(N/N=C/c3ccc4c(c3)OCO4)[nH]c2=O)cc1`, the EC50 was more than 200 µM and the IC50 was 95.5 µM.

Take `COc1ccc2c(c1)CC[C@@H]1[C@@H]2CC[C@]2(C)C(=O)/C(=N/O)C[C@@H]12`: the EC50 is more than 200 µM and the IC50 came out at 8.51 µM. On the same counts, the results for `Cc1cc(SCC(=O)c2ccccc2[N+](=O)[O-])cc(C)[o+]1` are more than 200 µM and 77.6 µM. `COc1ccc2c3c(c4cc(OC)c(OC)cc4c2c1)C[C@H]1CCCCN1C3`: the EC50 was more than 31.6 µM and the IC50 came out at 0.01 µM. With `CCC(=O)c1cn(C)c(=O)c2ccccc12`, the outcome was inactive. For the compound `COc1cc2c3c(c1)SC(C)C(=O)N3CCN2` (stereo unspecified), the EC50 was more than 200 µM and the IC50 was found to be 105 µM. For `CCOC(=O)c1cc2c([nH]1)c(OC(C)=O)cc1c2ccn1Cc1ccccc1`, the EC50 is more than 200 µM and the IC50 is more than 200 µM.

Consider `CC([C@H]1CCC2[C@@H]3CCC4C(=O)C(NC(=O)c5ccccc5)=CC[C@]4(C)C3CC[C@@]21C)N(C)C` (stereo partly specified), for which the EC50 was more than 4.37 µM and the IC50 is 1.32 µM. On to `Cc1ccccc1N=Cc1ccc(N(CCC#N)S(=O)(=O)c2ccccc2)cc1`, for which the EC50 was more than 617 µM and the IC50 is 479 µM. On the same counts, the results for `CC#N.CC#N.COC(=O)[C@@H]1CN(C(=O)Cc2ccccc2)C(=O)[N-]1.COC(=O)[C@@H]1CN(C(=O)Cc2ccccc2)C(=O)[N-]1.COC(=O)[C@@H]1CN(C(=O)Cc2ccccc2)C(=O)[N-]1.COC(=O)[C@@H]1CN(C(=O)Cc2ccccc2)C(=O)[N-]1.[Rh+2].[Rh+2]` are more than 12 µM and 11 µM. As for `O=C1NC2(CCCCC2)C2=C1CCCCC2`, the result was inactive. Consider `C=C1CC(COc2ccc3c(C)cc(=O)oc3c2)(c2ccccc2)OC1=O` (stereo unspecified), for which the EC50 was more than 200 µM and the IC50 stood at 0.603 µM. Regarding `CCOC(=O)C1CCN(C(=O)c2ccccc2)c2scc(-c3ccccc3)c2C1=O` (stereo unspecified), the EC50 is more than 100 µM and the IC50 is 13.8 µM. With `COC[C@@H](N=CC(C)(C)C)C(C)C`, the EC50 is more than 200 µM and the IC50 was more than 200 µM. As to `COc1cc(CNc2cnc3cc(N)ccc3n2)cc(OC)c1OC`, the EC50 was more than 200 µM and the IC50 turned out to be 6.46 µM. Turning to `c1ccn2nncc2c1`, the EC50 was more than 200 µM and the IC50 is more than 200 µM.

As for `Cc1cc(N(CCC#N)CCC#N)ccc1/C=N/NC(=O)c1ccccc1`, the EC50 was more than 200 µM and the IC50 amounted to 7.41 µM. With `CC(=O)Oc1ccc2c(c1)nnn2C(C)=O`, the EC50 was more than 200 µM and the IC50 is more than 200 µM. As for `CC1=C2NCN(C)N=C2C(C#N)(C#N)C1(C#N)C#N`, the EC50 is more than 200 µM and the IC50 came to 10.5 µM. Take `COc1cc2c(c(Cl)c1OC)CCN(C)CC2c1ccccc1` (stereo unspecified): the EC50 is more than 200 µM and the IC50 was determined as 70.8 µM.

With `CCOC(=O)C(=Cc1cccc(Br)c1)C(=O)OCC`, the EC50 is more than 759 µM and the IC50 was found to be 468 µM. On to `COc1ccc2c(c1)OCC1Cc3cccc(OC)c3OC21` (stereo unspecified), for which the EC50 is more than 200 µM and the IC50 amounted to 44.7 µM. Take `COC(=O)C1=C(C)N2CCSC2(C)C(C(=O)OC)C1c1cccc(Cl)c1` (stereo unspecified): the EC50 was more than 200 µM and the IC50 turned out to be 42.7 µM. Regarding `COc1ccccc1NC(=O)C(/C=N/C(=S)NNC(C)=O)=C(/C)O`, the EC50 is more than 200 µM and the IC50 is more than 200 µM.

Turning to `COc1cc2c(cc1O)C(CSC)Cc1cc3c(cc1N(C)CC2)OCO3` (stereo unspecified), the EC50 was more than 148 µM and the IC50 worked out at 12 µM. On the same counts, the results for `Cc1c2ccn(O)cc2c(C)c2c1nc1ccccc12` are more than 200 µM and 1.82 µM. Regarding `CC12CC(OC(=O)[C@]1(C)O)[C@@H]([C@]1(O)CC[C@H]3[C@@H]4C[C@H]5O[C@]56[C@@H](O)C=CC(=O)[C@]6(C)[C@H]4CC[C@@]31C)C2` (stereo partly specified), the EC50 was more than 3.89 µM and the 50% inhibitory concentration (IC50) is 0.145 µM.

In the case of `Cc1ccc(NC(=S)NNC(=O)c2cc(-c3ccccc3)nc3ccccc23)cc1C`, the EC50 was more than 200 µM and the 50% inhibitory concentration (IC50) was 12.6 µM. On the same counts, the results for `CCCCCCCCCCCCCc1nn[nH]n1` are more than 102 µM and more than 100 µM. As to `CCOC(=O)c1cn2c(nc1=O)N[C@H]1CCCC[C@@H]12`, the EC50 is more than 200 µM and the IC50 was more than 200 µM.

As for `CC(=O)Nc1c(C#N)c2n(c1C(=O)Nc1ccc(S(N)(=O)=O)cc1)CCC2`, the EC50 is more than 200 µM and the IC50 was more than 200 µM. As for `CC1=CC(=O)C2(C)CC[C@]3(O)CCCC123` (stereo partly specified), the outcome was inactive. For `NC(=S)C(=S)N=Cc1c(N)[nH]n(-c2ccccc2)c1=O`, the EC50 is more than 120 µM and the IC50 was found to be 70.8 µM. On to `CC1(C)OC2CC3CC(OC3=O)C2O1` (stereo unspecified), for which the EC50 is more than 832 µM and the IC50 is more than 832 µM.

Regarding `CCOC(=O)CCSS(=O)(=O)c1ccccc1`, the EC50 was more than 200 µM and the IC50 was found to be 35.5 µM. `Nc1nccc(NCC2(CO)CC(OCc3ccccc3)C2)n1` (stereo unspecified): the EC50 is more than 200 µM and the IC50 was more than 200 µM. For `O=C(CCc1cc(-c2ccc(F)cc2)n[nH]1)N(Cc1ccccc1)Cc1ccccc1`, the EC50 was more than 17.4 µM and the IC50 was more than 17.4 µM. Turning to `C[C@]12C=CC(=O)C=C1CC[C@H]1[C@@H]3C[C@@H](O)[C@](O)(C(=O)CO)[C@@]3(C)C[C@H](O)[C@@]12F`, the result was inactive. With `O=C(Nc1cccc(O)c1)C(=O)C(C(=O)c1ccccc1F)C1OC(=O)c2ccccc21` (stereo unspecified), the EC50 is more than 302 µM and the IC50 was determined as 24 µM. Regarding `CC(=O)C(/C=N\C(N)=S)=C(\C)O`, the EC50 was more than 200 µM and the IC50 was more than 200 µM. Regarding `CSc1nnc2c(=O)n(C)c(=O)n(C)c2n1`, the EC50 is more than 200 µM and the IC50 came to 43.7 µM. Consider `Cc1cc(N=Nc2ccc(Sc3ccc(N=Nc4ccc(O)c(C(=O)O)c4)cc3)cc2)c(N)c(N=Nc2ccc(C(=O)O)cc2)c1N`, for which the EC50 was more than 200 µM and the IC50 came out at 27.5 µM. As for `O=C(c1c(F)c(F)c(F)c(F)c1F)n1c(=O)[nH]c2ccccc21`, the EC50 was more than 200 µM and the IC50 amounted to 10.7 µM. With `CCOC(=O)NNC(=O)NCc1cccc(CNC(=O)NNC(=O)OCC)c1`, the EC50 was more than 200 µM and the IC50 is more than 200 µM. On to `S=C1NC(/C=C/c2ccccc2)Nc2ccccc21` (stereo unspecified), for which the EC50 was more than 26.9 µM and the IC50 was more than 26.9 µM.

As to `COC(=O)c1ccc(C)cc1/C=C1\Cc2ccc(C)cc2C1=O`, the EC50 is more than 200 µM and the IC50 is 18.6 µM.

As to `O=C1C=C(N2CCCC2)c2ncccc2C1=O`, the outcome was inactive.

The record behind these values is PubChem BioAssay AID179 (DTP/NCI, 2004).
